Data from US8741897B2, “Glucocorticoid mimetics, methods of making them, pharmaceutical compositions and uses thereof” (Boehringer Ingelheim Pharmaceuticals Inc., priority 2003, dated 2014).

Tests used:
[1] = test system: glucocorticoid receptor function; experiment: one or more of the above assays (GR binding and glucocorticoid receptor cell assays: aromatase, IL-6, TAT, MMTV-Luc, IL-8, ICAM-Luc); assay type: cell-based; conditions: assay not specified per compound
[2] = biological target: T1, human glucocorticoid receptor (GR) complex (Homo sapiens, UniProt P04150); experiment: Glucocorticoid receptor competitive binding assay (fluorescence polarization, TAMRA-labeled dexamethasone probe); conditions: compounds of Formula (IA)
T1 construct: made in house; host or cells: insect expression system (baculovirus lysate)
T1 sequence (P04150 1-777): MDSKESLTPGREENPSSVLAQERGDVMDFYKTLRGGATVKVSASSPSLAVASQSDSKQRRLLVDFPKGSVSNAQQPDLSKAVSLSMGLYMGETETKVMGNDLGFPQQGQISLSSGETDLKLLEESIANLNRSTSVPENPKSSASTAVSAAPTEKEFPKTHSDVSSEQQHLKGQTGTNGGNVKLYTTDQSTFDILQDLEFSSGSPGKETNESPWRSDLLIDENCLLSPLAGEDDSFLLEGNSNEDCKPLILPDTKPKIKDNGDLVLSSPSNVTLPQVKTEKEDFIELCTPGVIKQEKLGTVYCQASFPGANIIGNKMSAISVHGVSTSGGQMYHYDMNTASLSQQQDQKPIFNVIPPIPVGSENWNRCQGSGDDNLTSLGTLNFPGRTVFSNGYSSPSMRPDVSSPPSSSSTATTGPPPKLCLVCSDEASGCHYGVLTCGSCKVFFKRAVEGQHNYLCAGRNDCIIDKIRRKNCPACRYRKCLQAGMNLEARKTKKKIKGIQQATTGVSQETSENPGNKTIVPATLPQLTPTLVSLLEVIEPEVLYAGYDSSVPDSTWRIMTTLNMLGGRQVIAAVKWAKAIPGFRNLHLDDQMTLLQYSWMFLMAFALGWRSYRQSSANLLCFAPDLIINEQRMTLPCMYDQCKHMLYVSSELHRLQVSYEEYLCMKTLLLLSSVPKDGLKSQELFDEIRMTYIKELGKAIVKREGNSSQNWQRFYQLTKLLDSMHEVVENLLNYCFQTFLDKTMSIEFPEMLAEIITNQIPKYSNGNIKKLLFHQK
Method in brief: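 Fluorescence-polarization competition against 15 nM TAMRA-dexamethasone (stock added to the mix) for human GR complex from baculovirus lysate diluted 1:170. Buffer: 10 mM TES, 50 mM KCl, 20 mM Na2MoO4, 1.5 mM EDTA, 0.04% CHAPS, 10% glycerol, 1 mM DTT, pH 7.4. IC50 from 4-parameter logistic fit.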

Row | Structure (SMILES) | activity as agonists of the glucocorticoid receptor function in one or more of the above assays [1] | activity in the GR binding assay [2]
1 | Cc1cccc(C(C)(C)CC(O)(Cc2ccnc3ccccc23)C(F)(F)F)c1 (stereo not shown) [1,1,1-Trifluoro-4-methyl-2-quinolin-4-ylmethyl-4-m-tolylpentan-2-ol] | potent agonists | potent activity
2 | Cc1cc(C)c(C(C)(C)CC(O)(Cc2[nH]c3ccccc3c2C#N)C(F)(F)F)cc1O (stereo not shown) [2-[2-Hydroxy-4-(5-hydroxy-2,4-dimethylphenyl)-4-methyl-2-trifluoromethylpentyl]-1H-indole-3-carbonitrile] | potent agonists | potent activity
3 | Cc1cc(CC(O)(CC(C)(C)c2cccc(F)c2)C(F)(F)F)cc(C)n1 (stereo not shown) [2-(2,6-Dimethylpyridin-4-ylmethyl)-1,1,1-trifluoro-4-(3-fluorophenyl)-4-methylpentan-2-ol] | potent agonists | potent activity
4 | COc1ccc(F)cc1C(C)(C)CC(O)(Cc1cc2cncnc2[nH]1)C(F)(F)F (stereo not shown) [1,1,1-Trifluoro-4-(5-fluoro-2-methoxyphenyl)-4-methyl-2-(7H-pyrrolo[2,3-d]pyrimidin-6-ylmethyl)pentan-2-ol] | potent agonists | potent activity
5 | COc1ccc(F)cc1C(C)(C)CC(O)(Cc1cc2cnccc2[nH]1)C(F)F (stereo not shown) [1,1-Difluoro-4-(5-fluoro-2-methoxyphenyl)-4-methyl-2-(1H-pyrrolo[3,2-c]pyridin-2-ylmethyl)pentan-2-ol] | potent agonists | potent activity
6 | Cc1ccc(C)c(C(C)(C)CC(O)(Cc2ccnc3ccccc23)C(F)(F)F)c1 (stereo not shown) [4-(2,5-Dimethylphenyl)-1,1,1-trifluoro-4-methyl-2-quinolin-4-ylmethylpentan-2-ol] | potent agonists | potent activity
7 | CC(C)(CC(O)(Cc1cc2ccccc2[nH]1)C(F)(F)F)c1ccccc1F (stereo not shown) [1,1,1-Trifluoro-4-(2-fluorophenyl)-2-(1H-indol-2-ylmethyl)-4-methylpentan-2-ol] | potent agonists | potent activity
8 | Cc1ccc(F)cc1C(C)(C)CC(O)(Cc1cc2cnccc2s1)C(F)(F)F (stereo not shown) [1,1,1-Trifluoro-4-(5-fluoro-2-methylphenyl)-4-methyl-2-thieno[3,2-c]pyridin-2-ylmethylpentan-2-ol] | potent agonists | potent activity
9 | Cc1cc(CC(O)(CC(C)(C)c2ccc(F)cc2)C(F)(F)F)c2ccccc2n1 (stereo not shown) [1,1,1-Trifluoro-4-(4-fluorophenyl)-4-methyl-2-(2-methylquinolin-4-ylmethyl)pentan-2-ol] | potent agonists | potent activity
10 | Cc1ccc(F)cc1C(C)(C)CC(O)(Cc1cc2cnccc2[nH]1)C(F)(F)F (stereo not shown) [1,1,1-Trifluoro-4-(5-fluoro-2-methylphenyl)-4-methyl-2-(1H-pyrrolo[3,2-c]pyridin-2-ylmethyl)pentan-2-ol] | potent agonists | potent activity
11 | CC(C)(C)c1ccc(O)c(C(C)(C)CC(O)(Cc2[nH]c3ccccc3c2C#N)C(F)(F)F)c1 (stereo not shown) [2-[4-(5-tert-Butyl-2-hydroxyphenyl)-2-hydroxy-4-methyl-2-trifluoromethylpentyl]-1H-indole-3-carbonitrile] | potent agonists | potent activity
12 | CC(C)(CC(O)(Cn1ccc2ncccc21)C(F)(F)F)c1cc(Cl)cc2c1OCC2 (stereo not shown) [4-(5-Chloro-2,3-dihydrobenzofuran-7-yl)-1,1,1-trifluoro-4-methyl-2-pyrrolo[3,2-b]pyridin-1-ylmethylpentan-2-ol] | potent agonists | potent activity
13 | COc1cc2cc(CC(O)(CC(C)(C)c3cc(F)ccc3OC)C(F)(F)F)[nH]c2cn1 (stereo not shown) [1,1,1-Trifluoro-4-(5-fluoro-2-methoxyphenyl)-2-(5-methoxy-1H-pyrrolo[2,3-c]pyridin-2-ylmethyl)-4-methylpentan-2-ol] | potent agonists | potent activity
14 | CC(C)(CC(O)(Cc1ccnc2ccccc12)C(F)(F)F)c1ccc(F)cc1 (stereo not shown) [1,1,1-Trifluoro-4-(4-fluorophenyl)-4-methyl-2-quinolin-4-ylmethylpentan-2-ol] | potent agonists | potent activity
15 | CC(C)(CC(O)(Cc1ccnc2ccccc12)C(F)(F)F)c1ccccc1C(F)(F)F (stereo not shown) [1,1,1-Trifluoro-4-methyl-2-quinolin-4-ylmethyl-4-(2-trifluoromethylphenyl)pentan-2-ol] | potent agonists | potent activity
16 | CC(C)(CC(O)(Cc1cc2ccccc2[nH]1)C(F)(F)F)c1cccc(F)c1 (stereo not shown) [1,1,1-Trifluoro-4-(3-fluorophenyl)-2-(1H-indol-2-ylmethyl)-4-methylpentan-2-ol] | potent agonists | potent activity
17 | Cc1ccccc1C(C)(C)CC(O)(Cc1ccnc2ccccc12)C(F)(F)F (stereo not shown) [1,1,1-Trifluoro-4-methyl-2-quinolin-4-ylmethyl-4-o-tolylpentan-2-ol] | potent agonists | potent activity
18 | COc1ccc(F)cc1C(C)(C)CC(O)(Cc1cc2cc(C(=O)NCC(N)=O)ccc2[nH]1)C(F)(F)F (stereo not shown) [2-[4-(5-Fluoro-2-methoxyphenyl)-2-hydroxy-4-methyl-2-trifluoromethylpentyl]-1H-indole-5-carboxylic acid carbamoylmethylamide] | potent agonists | potent activity
19 | COc1ccc(F)cc1C(C)(C)CC(O)(Cc1cc2c(C)cncc2[nH]1)C(F)(F)F (stereo not shown) [1,1,1-Trifluoro-4-(5-fluoro-2-methoxyphenyl)-4-methyl-2-(4-methyl-1H-pyrrolo[2,3-c]pyridin-2-ylmethyl)pentan-2-ol] | potent agonists | potent activity
20 | Cc1cc(C#N)cc2[nH]c(CC(O)(CC(C)(C)c3ccc(F)cc3O)C(F)(F)F)cc12 (stereo not shown) [2-[4-(4-Fluoro-2-hydroxyphenyl)-2-hydroxy-4-methyl-2-trifluoromethylpentyl]-4-methyl-1H-indole-6-carbonitrile] | potent agonists | potent activity
21 | CC(C)(CC(O)(Cc1cc2cc([N+](=O)[O-])ccc2[nH]1)C(F)(F)F)c1cc(F)ccc1O (stereo not shown) [4-Fluoro-2-[4,4,4-trifluoro-3-hydroxy-1,1-dimethyl-3-(5-nitro-1H-indol-2-ylmethyl)butyl]phenol] | potent agonists | potent activity
22 | CN(C)c1ccc(C(C)(C)CC(O)(Cc2ccnc3ccccc23)C(F)(F)F)cc1 (stereo not shown) [4-(4-Dimethylaminophenyl)-1,1,1-trifluoro-4-methyl-2-quinolin-4-ylmethylpentan-2-ol] | potent agonists | potent activity
23 | CC(C)(CC(O)(Cc1ccnc2ccccc12)C(F)(F)F)c1cc(F)ccc1O (stereo not shown) [4-Fluoro-2-(4,4,4-trifluoro-3-hydroxy-1,1-dimethyl-3-quinolin-4-ylmethylbutyl)phenol] | potent agonists | potent activity
